Experiment: xn = mol fraction of the nth substance listed
Conditions: 101 kPa, Liquid

CCCCCCO [hexan-1-ol] + C1COCCO1
Conditions	mass density [kg/m3]	viscosity [mPa·s]
283.15 K, x2 = 0.1835	860.24	4.488
283.15 K, x2 = 0.2675	873.31	3.52
283.15 K, x2 = 0.385	896.72	2.785
283.15 K, x2 = 0.4933	916.23	2.324
283.15 K, x2 = 0.5935	938.47	2.007
283.15 K, x2 = 0.6866	957.86	1.815
283.15 K, x2 = 0.7731	981.11	1.691
283.15 K, x2 = 0.8795	1013.54	1.601
293.15 K, x2 = 0.1835	853.33	3.221
293.15 K, x2 = 0.2675	865.64	2.707
293.15 K, x2 = 0.385	889.2	2.184
293.15 K, x2 = 0.4933	903.63	1.845
293.15 K, x2 = 0.5935	929.82	1.626
293.15 K, x2 = 0.6866	951.11	1.554
293.15 K, x2 = 0.7731	973.8	1.395
293.15 K, x2 = 0.8795	1002.74	1.311
303.15 K, x2 = 0.1835	845.02	2.632
303.15 K, x2 = 0.2675	857.53	2.121
303.15 K, x2 = 0.385	879.87	1.748
303.15 K, x2 = 0.4933	898.36	1.506
303.15 K, x2 = 0.5935	920.31	1.339
303.15 K, x2 = 0.6866	941.43	1.238
303.15 K, x2 = 0.7731	963.84	1.173
303.15 K, x2 = 0.8795	990.21	–
313.15 K, x2 = 0.1835	836.88	2.285
313.15 K, x2 = 0.2675	849.44	1.705
313.15 K, x2 = 0.385	871.16	1.431
313.15 K, x2 = 0.4933	889.72	1.254
313.15 K, x2 = 0.5935	909.94	1.127
313.15 K, x2 = 0.6866	931.85	1.053
313.15 K, x2 = 0.7731	953.63	1.002
313.15 K, x2 = 0.8795	980.82	0.965
323.15 K, x2 = 0.1835	829.74	1.699
323.15 K, x2 = 0.2675	841.13	1.403
323.15 K, x2 = 0.385	864.56	1.196
323.15 K, x2 = 0.4933	880.42	1.056
323.15 K, x2 = 0.5935	900.9	0.964
323.15 K, x2 = 0.6866	921.84	0.907
323.15 K, x2 = 0.7731	943.38	0.869
323.15 K, x2 = 0.8795	971.57	0.843
333.15 K, x2 = 0.1835	821.17	1.289
333.15 K, x2 = 0.2675	833.54	1.16
333.15 K, x2 = 0.385	856.26	1.012
333.15 K, x2 = 0.4933	869.91	0.903
333.15 K, x2 = 0.5935	890.93	0.839
333.15 K, x2 = 0.6866	911.92	0.792
333.15 K, x2 = 0.7731	933.31	0.763
333.15 K, x2 = 0.8795	958.09	0.742
343.15 K, x2 = 0.1835	815.14	1.074
343.15 K, x2 = 0.2675	824.52	0.975
343.15 K, x2 = 0.385	843.77	0.863
343.15 K, x2 = 0.4933	862.93	0.786
343.15 K, x2 = 0.5935	881.04	0.732
343.15 K, x2 = 0.6866	905.05	0.748
343.15 K, x2 = 0.7731	923.91	0.678
343.15 K, x2 = 0.8795	947.05	0.662

Reference: the NIST ThermoML archive (doi:10.1021/je700344f)
